Results on three molecules are retold here after article PMC3156125, “Reconstitution of the Costunolide Biosynthetic Pathway in Yeast and Nicotiana benthamiana” (PLoS ONE, 2011).

Common to all, as to format: cell-based
The target in experiment [1] is T1, CiGAO (Cichorium intybus, UniProt D5JBW8).
T1 construct: cDNA from chicory library, no terminal tags, pESC-Trp in WAT11 yeast with TpGAS
T1 sequence (D5JBW8 1-488): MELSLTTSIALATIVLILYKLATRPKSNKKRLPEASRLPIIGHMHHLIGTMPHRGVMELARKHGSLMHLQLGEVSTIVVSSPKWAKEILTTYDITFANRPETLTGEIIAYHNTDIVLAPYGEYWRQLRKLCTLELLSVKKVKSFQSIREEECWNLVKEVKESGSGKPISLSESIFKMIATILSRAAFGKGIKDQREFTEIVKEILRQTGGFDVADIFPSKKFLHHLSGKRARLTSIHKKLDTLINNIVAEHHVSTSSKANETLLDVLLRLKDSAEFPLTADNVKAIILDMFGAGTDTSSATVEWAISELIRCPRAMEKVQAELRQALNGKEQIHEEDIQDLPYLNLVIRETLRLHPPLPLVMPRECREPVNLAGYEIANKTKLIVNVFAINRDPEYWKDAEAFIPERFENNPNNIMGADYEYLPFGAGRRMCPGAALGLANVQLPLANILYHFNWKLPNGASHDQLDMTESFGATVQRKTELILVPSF
Briefly: yeast co-expression, GC-MS. To be noted: WAT11 yeast with TpGAS; detected as elematrien-12-oic acid after heat rearrangement.

The target of the next experiment is T2, CiCOS (Cichorium intybus, UniProt G3GBK0).
T2 construct: gene CYP71BL3; full-length cDNA in pYEDP60, WAT11 yeast, co-expressed with TpGAS and CiGAO; also N. benthamiana
T2 sequence (G3GBK0 1-494): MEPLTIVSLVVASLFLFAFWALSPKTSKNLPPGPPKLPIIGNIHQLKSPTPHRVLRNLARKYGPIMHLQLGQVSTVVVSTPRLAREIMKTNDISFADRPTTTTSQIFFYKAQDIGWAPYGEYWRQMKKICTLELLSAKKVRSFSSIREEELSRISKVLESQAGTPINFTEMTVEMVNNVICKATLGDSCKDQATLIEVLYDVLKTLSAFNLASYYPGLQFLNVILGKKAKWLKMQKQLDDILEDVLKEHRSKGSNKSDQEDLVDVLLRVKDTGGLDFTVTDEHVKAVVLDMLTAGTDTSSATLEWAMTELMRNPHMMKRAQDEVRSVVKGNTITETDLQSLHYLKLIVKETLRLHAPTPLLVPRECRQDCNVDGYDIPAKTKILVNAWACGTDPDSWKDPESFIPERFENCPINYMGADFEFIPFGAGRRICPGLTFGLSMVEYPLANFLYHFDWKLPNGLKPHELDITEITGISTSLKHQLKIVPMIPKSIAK
Briefly: yeast co-expression, GC-MS and UPLC-MRM-MS. To be noted: WAT11 yeast with TpGAS and CiGAO; substrate formed in situ; HEPES or MOPS pH 7.5, 30 °C; also N. benthamiana transient expression.

The target of the next experiment is T3, TpGAS (Tanacetum parthenium, UniProt F8UL80).
T3 construct: gene GAS
T3 sequence (F8UL80 1-559): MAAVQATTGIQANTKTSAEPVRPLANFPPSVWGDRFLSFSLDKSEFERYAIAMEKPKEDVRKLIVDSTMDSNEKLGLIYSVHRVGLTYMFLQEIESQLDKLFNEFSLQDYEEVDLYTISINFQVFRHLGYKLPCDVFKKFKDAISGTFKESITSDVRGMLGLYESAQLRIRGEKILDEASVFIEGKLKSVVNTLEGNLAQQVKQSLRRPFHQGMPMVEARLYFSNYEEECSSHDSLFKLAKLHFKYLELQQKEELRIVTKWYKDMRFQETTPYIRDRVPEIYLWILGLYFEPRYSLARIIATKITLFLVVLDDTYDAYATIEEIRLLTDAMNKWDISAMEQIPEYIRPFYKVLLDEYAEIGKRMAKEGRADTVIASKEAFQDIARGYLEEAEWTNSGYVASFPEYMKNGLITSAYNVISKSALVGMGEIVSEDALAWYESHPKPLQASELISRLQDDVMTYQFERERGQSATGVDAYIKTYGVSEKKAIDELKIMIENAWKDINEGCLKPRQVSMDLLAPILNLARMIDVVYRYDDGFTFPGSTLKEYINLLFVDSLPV
The experiment is described as follows: yeast culture extract, GC-MS. To be noted: endogenous farnesyl diphosphate; also N. benthamiana headspace.

In experiment [2] the target is T1, CiGAO. The experiment is described as follows: N. benthamiana co-infiltration, headspace GC-MS. To be noted: with mTpGAS; substrate formed in situ.
In another experiment the target is T4, CiGAS-l (CiGAS-long) (Cichorium intybus, UniProt Q8LSC3).
T4 sequence (Q8LSC3 1-583): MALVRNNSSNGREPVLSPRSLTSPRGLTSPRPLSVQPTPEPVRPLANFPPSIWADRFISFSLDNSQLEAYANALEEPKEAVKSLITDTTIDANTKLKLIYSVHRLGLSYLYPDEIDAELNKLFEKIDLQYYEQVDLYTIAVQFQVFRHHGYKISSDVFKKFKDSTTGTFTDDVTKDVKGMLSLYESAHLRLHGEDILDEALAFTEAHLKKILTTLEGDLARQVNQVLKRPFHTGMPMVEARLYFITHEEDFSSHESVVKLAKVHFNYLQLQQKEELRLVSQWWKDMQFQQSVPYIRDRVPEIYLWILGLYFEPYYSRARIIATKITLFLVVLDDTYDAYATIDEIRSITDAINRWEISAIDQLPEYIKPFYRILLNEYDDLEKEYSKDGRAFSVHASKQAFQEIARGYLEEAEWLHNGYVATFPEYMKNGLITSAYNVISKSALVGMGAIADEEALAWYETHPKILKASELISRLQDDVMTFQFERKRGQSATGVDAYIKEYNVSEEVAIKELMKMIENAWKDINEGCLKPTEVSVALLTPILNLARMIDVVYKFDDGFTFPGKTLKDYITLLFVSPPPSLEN
The experiment is described as follows: yeast culture extract, GC-MS. To be noted: endogenous farnesyl diphosphate.

As to `C=C(C(=O)O)[C@H]1C/C=C(\C)CC/C=C(\C)CC1` [germacra-1(10),4,11(13)-trien-12-oic acid], at CiGAO [1], the “yeast co-expression, GC-MS” value was “enzymatic activity was confirmed in our yeast system by co-expression of TpGAS and CiGAO”.
As to `C=C1C(=O)O[C@@H]2/C=C(\C)CC/C=C(\C)CC[C@@H]12` [costunolide], on CiCOS, the “yeast co-expression, GC-MS and UPLC-MRM-MS” value was “encodes an enzymatic activity which was able to produce costunolide”.
For the molecule `C=C(C)[C@H]1C/C=C(\C)CC/C=C(\C)CC1` [germacrene A], the “yeast culture extract, GC-MS” value at TpGAS is “yeast culture expressing TpGAS had an approximately three fold higher activity”; on CiGAS-l (CiGAS-long) it was “Germacrene A production in yeast. A yeast culture transformed by either CiGAS-long”. Also, the “N. benthamiana co-infiltration, headspace GC-MS” value on CiGAO [2] is listed as “CiGAO can efficiently catalyse the conversion of the product of mTpGAS, germacrene A”.
